Among the data in patent US20260250320A1, “LIPIDATED PEPTIDE INHIBITORS OF INTERLEUKIN-23 RECEPTOR” (Janssen Pharmaceutica NV, priority 2023, published 2026) are IC50 values, retold here.

*1 amine or outer side, *2 acyl side, *3 side chain or, on linkers, in order; H or OH if unused. Where a SMILES comes first, the peptide text is derived from it. Bridges are numbered along the chain shown (N, C = ends). Side-chain parts run from the residue outwards. [ ]: non-standard residue; d: D form. The star is where a group is joined. X5 = O=C(O)CCCCCCCCCCCCCCCCC(=O)N[C@@H](CCC(=O)NC(=O)*)C(=O)O; Trp(7-Me) = Cc1cccc2c(C[C@H](N)C(=O)O)c[nH]c12; C18 diacid = O=C(O)CCCCCCCCCCCCCCCCC(=O)*; γGlu = O=C(O)[C@H](CCC(=O)[*:2])N[*:1]; 2Nal = N[C@@H](Cc1ccc2ccccc2c1)C(=O)O; AEF = NCCOc1ccc(C[C@H](N)C(=O)O)cc1; X2 = C[N+](C)(C)C[C@@H](CC(=O)O)N*; 3Pal = N[C@@H](Cc1cccnc1)C(=O)O; Pen = CC(C)(S)[C@H](N)C(=O)O; Suc = O=C(CCC(=O)[*:2])[*:1]; Thp = NC1(C(=O)O)CCOCC1; AEEA = NCCOCCOCC(=O)O; Sar = CNCC(=O)O

Assay [1] addresses T1, IL-23R (Homo sapiens, UniProt Q5VWK5).
T1 construct: HEK293 cells containing IL-23R, IL-12Rβ1 and a firefly luciferase reporter gene driven by a STAT-inducible promoter (Promega); host or cells: HEK293
T1 sequence (Q5VWK5 24-629): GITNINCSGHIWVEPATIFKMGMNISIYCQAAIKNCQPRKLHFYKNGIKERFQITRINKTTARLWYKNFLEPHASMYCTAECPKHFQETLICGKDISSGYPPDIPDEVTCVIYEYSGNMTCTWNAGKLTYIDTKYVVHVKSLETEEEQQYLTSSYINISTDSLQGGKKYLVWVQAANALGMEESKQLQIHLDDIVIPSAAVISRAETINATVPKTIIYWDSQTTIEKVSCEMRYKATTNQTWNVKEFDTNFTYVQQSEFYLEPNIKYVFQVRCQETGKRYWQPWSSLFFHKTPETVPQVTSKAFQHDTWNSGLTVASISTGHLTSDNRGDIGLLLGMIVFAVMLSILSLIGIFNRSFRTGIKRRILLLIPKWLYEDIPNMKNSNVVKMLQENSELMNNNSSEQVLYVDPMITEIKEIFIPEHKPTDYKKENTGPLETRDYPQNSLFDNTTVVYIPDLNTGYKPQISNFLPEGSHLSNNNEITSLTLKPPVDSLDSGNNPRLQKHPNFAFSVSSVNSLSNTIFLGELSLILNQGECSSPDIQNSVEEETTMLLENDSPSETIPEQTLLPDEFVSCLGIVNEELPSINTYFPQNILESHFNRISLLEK
The assay is described as follows: IL23R Reporter Assay. It counts as cell-based. As to conditions: HEK293 cells containing IL-23R, IL-12Rβ1 and STAT-inducible firefly luciferase reporter; 10 ng/mL IL-23 (EC90); 5 h. In a few lines:
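IC50 values were fitted with a 4-parameter Hill equation to luciferase signal, scaled between IL-23-only wells (0% inhibition) and 30 μM reference inhibitor (100%). The readout was a STAT-inducible reporter in IL-23R/IL-12Rβ1 HEK293 cells, stimulated with added 10 ng/mL IL-23 (EC90) for 5 h at 37° C and developed with BioGlo.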
Background: In a reporter assay the amount or activity of a reporter protein is the signal.

The subject of assay [2] is IL-23-stimulated phosphorylated STAT3 in peripheral blood mononuclear cells (PBMCs). As to the kind of experiment: PBMC pSTAT3 Assay. Format: cell-based. The settings on record: PBMCs from healthy donors; 30 min preincubation with peptide; IL-23 5 ng/mL for 30 min; phospho-STAT3 by MSD. How it is done: Cryopreserved peripheral blood mononuclear cells (PBMCs) from healthy donors were thawed and washed twice in ImmunoCult-XF T cell expansion medium (XF-TCEM) supplemented with CTL anti-aggregate wash. The cells were counted, resuspended at 2-6×10^5 cells per mL XF-TCEM supplemented with penicillin/streptomycin and 100 ng/mL […] (BioLegend, 579404), and cultured in tissue culture flasks coated with anti-CD3 (eBioscience, 16-0037-85 or BD Pharmingen, 555329) at 37° C. in 5% CO2. On day 4 of culture, PBMCs were collected, washed twice in RPMI-1640 supplemented with 0.1% BSA (RPMI-BSA), and incubated in RPMI-BSA in upright tissue culture flasks for ~4 hours at 37° C. in 5% CO2. Following this 'starvation,' a total of 6×10^4 cells in 30 μL RPMI-BSA was transferred into each well of a 384-well plate pre-spotted with peptide or DMSO. The cells were incubated for 30 minutes prior to the addition of […] at a final concentration of 5 ng/mL. The cells were stimulated with cytokine for 30 minutes at 37° C. in 5% CO2, transferred onto ice for 10 minutes, and lysed. Cell lysates were stored at -80° C. until phosphorylated STAT3 was measured using the phospho-STAT panel kit (Meso Scale Discovery, […]). Results are provided below. • A: IC50<0.5 nM; • B: 0.5 nM≤IC50<5 nM; • C: 5 nM≤IC50; • ND: Not determined

For orientation: IC50 means the point on the concentration scale where inhibition reaches its midpoint. With `CC(=O)NCCCC[C@@H]1NC(=O)[C@H](Cc2c[nH]c3c(C)cccc23)NC(=O)[C@H]([C@@H](C)O)NC(=O)[C@H](CC(N)=O)NC(=O)[C@@H](NC(C)=O)C(C)(C)SSC(C)(C)[C@@H](C(=O)N[C@@H](Cc2ccc(OCCNC(=O)COCCOCCNC(=O)COCCOCCNC(=O)CC[C@H](NC(=O)CCCCCCCCCCCCCCCCC(=O)O)C(=O)O)cc2)C(=O)N[C@@H](Cc2ccc3ccccc3c2)C(=O)NC2(C(=O)N[C@@H](CCCCNC(=O)CCC(=O)N[C@H](CC(=O)O)C[N+](C)(C)C)C(=O)N[C@@H](CC(N)=O)C(=O)N[C@@H](Cc3cccnc3)C(=O)N(C)CC(N)=O)CCOCC2)NC1=O` [compound 8, MeCO-Pen(3)-N-T-7MeW-K(Ac)-Pen(3)-AEF(PEG2PEG2gEC18OH)-2Nal-THP-K(d)-N-3Pya-Sar-CONH2] (Ac-[Pen]NT[Trp(7-Me)]K(Ac)[Pen][AEF]([AEEA-AEEA-γGlu-C18 diacid])[2Nal][Thp]K([Suc-X2])N[3Pal][Sar]-NH2; disulfide 1-6), the IC50 in assay [1] is less than 50 nM; in assay [2], less than 0.5 nM.
As to `CC(=O)NCCCC[C@@H]1NC(=O)[C@H](Cc2c[nH]c3c(C)cccc23)NC(=O)[C@H]([C@@H](C)O)NC(=O)[C@H](CC(N)=O)NC(=O)[C@@H](NC(=O)[C@@H](CCCNC(=N)N)NC(C)=O)C(C)(C)SSC(C)(C)[C@@H](C(=O)N[C@@H](Cc2ccc(OCCNC(=O)COCCOCCNC(=O)COCCOCCNC(=O)CC[C@H](NC(=O)CCCCCCCCCCCCCCCCC(=O)O)C(=O)O)cc2)C(=O)N[C@@H](Cc2ccc3ccccc3c2)C(=O)NC2(C(=O)N[C@@H](CCCCNC(=O)CCC(=O)N[C@H](CC(=O)O)C[N+](C)(C)C)C(=O)N[C@@H](CC(N)=O)C(=O)N[C@@H](Cc3cccnc3)C(=O)N(C)CC(N)=O)CCOCC2)NC1=O` [compound 9, MeCO-r-Pen(3)-N-T-7MeW-K(Ac)-Pen(3)-AEF(PEG2PEG2gEC18OH)-2Nal-THP-K(d)-N-3Pya-Sar-CONH2] (Ac-[dR][Pen]NT[Trp(7-Me)]K(Ac)[Pen][AEF]([AEEA-AEEA-γGlu-C18 diacid])[2Nal][Thp]K([Suc-X2])N[3Pal][Sar]-NH2; disulfide 2-7), the IC50 in assay [1] was less than 50 nM; in assay [2], less than 0.5 nM.
Consider `CC(=O)NCCCC[C@@H]1NC(=O)[C@H](Cc2c[nH]c3c(C)cccc23)NC(=O)[C@H]([C@@H](C)O)NC(=O)[C@H](CCCCNC(=O)CCC(=O)N[C@H](CC(=O)O)C[N+](C)(C)C)NC(=O)[C@@H](NC(=O)[C@@H](CCCNC(=N)N)NC(C)=O)C(C)(C)SSC(C)(C)[C@@H](C(=O)N[C@@H](Cc2ccc(OCCNC(=O)COCCOCCNC(=O)COCCOCCNC(=O)CC[C@H](NC(=O)CCCCCCCCCCCCCCCCC(=O)O)C(=O)O)cc2)C(=O)N[C@@H](Cc2ccc3ccccc3c2)C(=O)NC2(C(=O)N[C@@H](CCC(=O)O)C(=O)N[C@@H](CC(N)=O)C(=O)N[C@@H](Cc3cccnc3)C(=O)N(C)CC(N)=O)CCOCC2)NC1=O` [compound 10, MeCO-r-Pen(3)-K(d)-T-7MeW-K(Ac)-Pen(3)-AEF(PEG2PEG2gEC18OH)-2Nal-THP-E-N-3Pya-Sar-CONH2] (Ac-[dR][Pen]K([Suc-X2])T[Trp(7-Me)]K(Ac)[Pen][AEF]([AEEA-AEEA-γGlu-C18 diacid])[2Nal][Thp]EN[3Pal][Sar]-NH2; disulfide 2-7), for which the IC50 is less than 50 nM in assay [1] and 0.5 to 5 nM in assay [2].
Turning to `CC(=O)NCCCC[C@@H]1NC(=O)[C@H](Cc2c[nH]c3c(C)cccc23)NC(=O)[C@H]([C@@H](C)O)NC(=O)[C@H](CC(N)=O)NC(=O)[C@@H](NC(=O)[C@@H](CCCNC(=N)N)NC(=O)CCC(=O)N[C@H](CC(=O)O)C[N+](C)(C)C)C(C)(C)SSC(C)(C)[C@@H](C(=O)N[C@@H](Cc2ccc(OCCNC(=O)COCCOCCNC(=O)COCCOCCNC(=O)NC(=O)CC[C@H](NC(=O)CCCCCCCCCCCCCCCCC(=O)O)C(=O)O)cc2)C(=O)N[C@@H](Cc2ccc3ccccc3c2)C(=O)NC2(C(=O)N[C@@H](CCC(=O)O)C(=O)N[C@@H](CC(N)=O)C(=O)N[C@@H](Cc3cccnc3)C(=O)N(C)CC(N)=O)CCOCC2)NC1=O` [compound 11, succiniccarn-r-Pen(3)-N-T-7MeW-K(Ac)-Pen(3)-AEF(PEG2PEG2gEC18OH)-2Nal-THP-E-N-3Pya-Sar-CONH2] ({X2-Suc}-[dR][Pen]NT[Trp(7-Me)]K(Ac)[Pen][AEF]([AEEA-AEEA-X5])[2Nal][Thp]EN[3Pal][Sar]-NH2; disulfide 2-7), the IC50 fell in the range of 50 to 500 nM in assay [1] and 0.5 to 5 nM in assay [2].
For the compound `CC(=O)NCCCC[C@@H]1NC(=O)[C@H](Cc2c[nH]c3c(C)cccc23)NC(=O)[C@H]([C@@H](C)O)NC(=O)[C@H](CCCCNC(=O)COCCOCCNC(=O)COCCOCCNC(=O)CC[C@H](NC(=O)CCCCCCCCCCCCCCCCC(=O)O)C(=O)O)NC(=O)[C@@H](NC(=O)[C@@H](CCCNC(=N)N)NC(C)=O)C(C)(C)SSC(C)(C)[C@@H](C(=O)N[C@@H](Cc2ccc(OCCN)cc2)C(=O)N[C@@H](Cc2ccc3ccccc3c2)C(=O)NC2(C(=O)N[C@@H](CCCCNC(=O)CCC(=O)N[C@H](CC(=O)O)C[N+](C)(C)C)C(=O)N[C@@H](CC(N)=O)C(=O)N[C@@H](Cc3cccnc3)C(=O)N(C)CC(N)=O)CCOCC2)NC1=O` [compound 12, MeCO-r-Pen(3)-K(PEG2PEG2gEC18OH)-T-7MeW-K(Ac)-Pen(3)-AEF-2Nal-THP-K(d)-N-3Pya-Sar-CONH2] (Ac-[dR][Pen]K([AEEA-AEEA-γGlu-C18 diacid])T[Trp(7-Me)]K(Ac)[Pen][AEF][2Nal][Thp]K([Suc-X2])N[3Pal][Sar]-NH2; disulfide 2-7), the results for the IC50 in assay [1] and in assay [2] were less than 50 nM and 0.5 to 5 nM, respectively.
Regarding `CC(=O)N[C@H](CCCNC(=N)N)C(=O)N[C@@H]1C(=O)N[C@@H](CC(N)=O)C(=O)N[C@@H]([C@@H](C)O)C(=O)N[C@@H](Cc2c[nH]c3c(C)cccc23)C(=O)N[C@@H](CCCCNC(=O)CCC(=O)N[C@H](CC(=O)O)C[N+](C)(C)C)C(=O)N[C@H](C(=O)N[C@@H](Cc2ccc(OCCNC(=O)COCCOCCNC(=O)COCCOCCNC(=O)CC[C@H](NC(=O)CCCCCCCCCCCCCCCCC(=O)O)C(=O)O)cc2)C(=O)N[C@@H](Cc2ccc3ccccc3c2)C(=O)NC2(C(=O)N[C@@H](CCC(=O)O)C(=O)N[C@@H](CC(N)=O)C(=O)N[C@@H](Cc3cccnc3)C(=O)N(C)CC(N)=O)CCOCC2)C(C)(C)SSC1(C)C` [compound 13, MeCO-r-Pen(3)-N-T-7MeW-K(d)-Pen(3)-AEF(PEG2gEC18OH)-2Nal-THP-E-N-3Pya-Sar-CONH2] (Ac-[dR][Pen]NT[Trp(7-Me)]K([Suc-X2])[Pen][AEF]([AEEA-AEEA-γGlu-C18 diacid])[2Nal][Thp]EN[3Pal][Sar]-NH2; disulfide 2-7), the results for the IC50 in assay [1] and in assay [2] were 50 to 500 nM and 0.5 to 5 nM, respectively.
As for `CC(=O)NCCCC[C@@H]1NC(=O)[C@H](Cc2c[nH]c3c(C)cccc23)NC(=O)[C@H]([C@@H](C)O)NC(=O)[C@H](CCCCNC(=O)COCCOCCNC(=O)COCCOCCNC(=O)CC[C@H](NC(=O)CCCCCCCCCCCCCCCCC(=O)O)C(=O)O)NC(=O)[C@@H](NC(C)=O)C(C)(C)SSC(C)(C)[C@@H](C(=O)N[C@@H](Cc2ccc(OCCN)cc2)C(=O)N[C@@H](Cc2ccc3ccccc3c2)C(=O)NC2(C(=O)N[C@@H](CCCCNC(=O)CCC(=O)N[C@H](CC(=O)O)C[N+](C)(C)C)C(=O)N[C@@H](CC(N)=O)C(=O)N[C@@H](Cc3cccnc3)C(=O)N(C)CC(N)=O)CCOCC2)NC1=O` [compound 15, MeCO-r-Pen(3)-N-T-7MeW-K(PEG2PEG2gEC18OH)-Pen(3)-AEF-2Nal-THP-K(d)-N-3Pya-Sar-CONH2] (Ac-[Pen]K([AEEA-AEEA-γGlu-C18 diacid])T[Trp(7-Me)]K(Ac)[Pen][AEF][2Nal][Thp]K([Suc-X2])N[3Pal][Sar]-NH2; disulfide 1-6), the IC50 in assay [1] lay within 50 to 500 nM; in assay [2] it was 0.5 to 5 nM.
